Assay results reported in patent US20220017468A1, “ISOQUINOLINE COMPOUNDS AND THEIR USE IN TREATING AhR IMBALANCE” (Dermavant Sciences GmbH, priority 2020, published 2022).
Where “and” joins values, the source holds several entries; their conditions need not be identical. Equal values may be shown once. Entries after “also recorded” stand apart in the source; their conditions may differ. Read-outs that look alike come from different tables or passages of the source.

Columns and labels:
IL-17A = test: CD4+ T cell IL17 assay; type: cell-based, human; conditions: for IC50: T-cell
Protocol: Therefore, compounds are evaluated for their ability to reduce IL-17 production from CD4+ T cells stimulated under Th17-skewing conditions. Cryopreserved human CD4^+ T cells (AllCells, LLC, Alameda, CA and Stemcell Technologies, Inc. Vancouver, Canada) were differentiated to the Th17 subtype by culturing for 5 days in CD3-coated tissue culture plates (2 μg/mL) in Iscove's modified Dulbecco's medium (IMDM) containing 10% HI-FBS, 55 μM 2-mercaptoethanol and soluble anti-CD28 (3 μg/mL) in the presence of a Th17 skewing cocktail, [IL-1β (10 ng/mL), IL-6 (30 ng/mL), TGFβ (0.5 ng/mL), IL-21 (10 ng/mL), IL-23 (10 ng/mL), anti-IFNγ (10 μg/mL) and anti-IL-4 (10 μg/mL)] in the presence or absence of serially diluted compounds. Secretion of IL-17 from polarized CD4+ T-cells was measured in the culture media using an MSD (Meso Scale Discovery) detection system following 5 day exposure toTh17 polarization reagents with and without compounds.

[1] = tested on: human primary keratinocytes; test: keratinocyte viability; type: cell-based; conditions: 48 h, two days
Text: Points represent percent maximum expression of protein compared to Th17 from six combined donors; 3 biological replicates per treatment. Error bars represent standard error of mean. […] Data are mean±standard error from 3 to 9 experimental data points. […] Error bars represent mean ±standard error of 10-15 biological replicates.

[2] = bioavailability after a single oral dose, minipig; type: in vivo; conditions: plasma, single 5 mg/kg oral dose, DMSO: Kolliphore HS15: hydroxypropyl-β-cyclodextrin (10:10:80)
Text: Bioavailability was 46.5% and 41.0% for 30% Captisol and 30% Cavitron, respectively. 30% Captisol formulation was selected for the 7-day subcutaneous toxicity study in rat.

[3] = tested on: dinitrofluorobenzene (DNFB)-challenged mouse; test: DNFB mouse model; type: in vivo; conditions: 0.3% in ethanolic formulation, twice daily
Text: DNFB is a small chemical hapten that induces a delayed-type hypersensitivity reaction with some similarity to human atopic dermatitis. […] This may indicate reduced exposure to the compound in the second study, although additional data would be required to understand whether this discrepancy results from different dosing strategies (q.d. vs b.i.d.), limitations of cream formulation 1, or another reason.
Healthy female CD1 mice (Crl:CD1(ICR)) were shaved on the abdomen and the nape of the neck under a 3 to 5% isoflurane anesthesia.
After body weight measurement, animals were allocated to study groups, according to the treatment table below. The study was divided in two arms, separated by 1 week, in order to accommodate for the in life monitoring of scratching monitoring. Half of the animals from each group (6 mice) were allocated in arm 1 and arm 2 respectively.
For each topical treatment, 100 mg of cream or 100 μL of liquid formulation were applied on the mouse nape of the neck skin using a solvent pipette. When creams were used, they were spread with a finger and allowed to penetrate the skin by massage until complete absorption. […]
Mice were culled on Day 17 under a 3 to 5% isoflurane anesthesia, 4 hours after the last topical treatment, and 48 hours after the last DNFB or acetone/olive oil challenge. […] Epidermal (FIG. 6C1) and dermal thickness (FIG. 6C2) were measured.

[4] = blood-to-plasma ratio and blood cell association, minipig; type: in vitro ADME
[5] = plasma protein binding by Rapid Equilibrium Dialysis, minipig; type: in vitro ADME; conditions: minipig, plasma
Text: (§1) The blood-to-plasma ratios were similar across species (1.22-1.36, Table 9).

Minipig Plasma Proteins = test: as above; type: in vitro ADME
Text: as §1

[6] = blood-to-plasma ratio and blood cell association, human; type: in vitro ADME
Nrf2 = test: luciferase-based reporter assay for NQO1 gene expression; type: cell-based
[7] = read-out: Blood-to-plasma Ratio Mean (% CV)
[8] = read-out: Blood-to-plasma Ratio Replicate

CC(C)c1c(O)cc(-c2cc3ccccc3cn2)cc1O
IC50 (IL-17A; MSD-based readout of secreted IL-17A from Th17-polarized primary human CD4+ peripheral blood T cells, read-out: IL-17A pIC50 (converted)): 0.00398 µM | IC50 (IL-17A; primary human peripheral blood CD4+ T-cells, read-out: IL-17A inhibition IC50): 0.14 µM | IL-17A production (IL-17A; Th17-skewing conditions, applied throughout culture): suppression of IL-17A; also recorded: reduces IL-17A production in a dose-dependent manner | IC50 [1]: 12.4 µM | bioavailability [2]: 0.1% | reduction in dermal thickness [3]: 34% | reduction in epidermal thickness [3]: 20% | % Blood Cell Association Mean (% CV) ([4]; 1 μM): 55.6 (2.02) % | % Blood Cell Association Replicate ([4]; 1 μM): 55.3% and 56.8% and 54.5% | Blood-to-plasma Ratio Replicate ([4]; 1 μM): 1.25 and 1.19 | Mean % Blood Stability ([4]; 1 μM): 105% | blood plasma ratio at 1 μM [4, 7]: 1.22 | blood plasma ratio at 1 μM [4, 8]: 1.21 | fraction unbound at 4 h, 2 μM ([5]; read-out: % Unbound Mean (% CV)): 0.0198 | fraction unbound at 4 h, 2 μM ([5]; read-out: % Unbound Replicate): 0.0187 | fraction unbound at 4 h, 2 μM ([5]; read-out: Mean % Bound (converted)): 0.02 | recovery at 4 h, 2 μM (Minipig Plasma Proteins): 95.6% | % Unbound Replicate (Minipig Plasma Proteins; 2 μM): 2.52% and 1.57% | Mean % Stability at 4 hrs (Minipig Plasma Proteins; 2 μM): 107% | % Blood Cell Association Mean (% CV) ([6]; 1 μM): 55.0 (2.39) % | % Blood Cell Association Replicate ([6]; 1 μM): 53.9% and 56.4% and 54.6% | Blood-to-plasma Ratio Replicate ([6]; 1 μM): 1.29 and 1.23 | Mean % Blood Stability ([6]; 1 μM): 107% | blood plasma ratio at 1 μM [6, 7]: 1.24 | blood plasma ratio at 1 μM [6, 8]: 1.21 | Nrf2 pEC50 (Nrf2): pEC50 = 7.0
